Source: patent US8288398B2, “Antiproliferative pyrimidyl, fused pyrimidyl and pyrimidyl hydrazones” (Merck Serono SA, priority 2005, dated 2012)
pIC50: −log10 of the molar value.

Experiments:
[1] = system: Colon cancer (C26, murine) cells; assay: Tumor cell proliferation assay (ATP-lite), C26; format: cell-based; details: Mus musculus, 96 h, inhibition of tumor cell growth by 50%, 4 days incubation, ATP-lite readout
Experimental: (§1) Assay 1: Tumor Cell Proliferation Assay:
(§2) Colon cancer (C26, murine), pancreatic cancer (MiaPaCa-2, human) cells were plated in 96-well white plates (Cat. No. 3917, Corning, Inc.) at 2.5×10^3 cells/well and cultured overnight at 37° C. in 5% CO2 in DMEM containing 10% FCS. Inhibitors were serially diluted in 100% DMSO and subsequently added to cells to reach a final concentration of 0.25% DMSO. Cell plates were incubated for an additional 4 days at 37° C. and 5% CO2 and cell proliferation was quantitated using the ATP-lite cell proliferation kit (Cat. No. 6016943, Perkin Elmer).
(§3) The ATPlite kit quantifies the ATP released from lysed cells by the generation of light caused by the reaction of the released ATP with the Luciferase and D-Luciferin contained in the kit. After the 4th day of incubation, the media is removed from the cell plates and replaced with 100 μL of PBS followed by 50 μL of the lysis solution. The plates are then shaken for 5 minutes on an orbital shaker followed by the addition of 50 μL of substrate solution. The plates are shaken for an additional 5 minutes followed by dark adaptation for 10 minutes and finally read on a Victor^3 V plate reader (1 second/well, Cat. No. 1420-041, Perkin Elmer).
(§4) Columns 2-3 show the concentration of compounds required to inhibit the growth of tumor cells by 50% (IC50 in μM).

[2] = system: pancreatic cancer (MiaPaCa-2, human) cells; assay: Tumor cell proliferation assay (ATP-lite), MiaPaCa-2; format: cell-based; details: MIA PaCa-2, 96 h; inhibition of tumor cell growth by 50%; MiaPaCa-2 human pancreatic cancer cells; 4 days incubation; ATP-lite readout
Experimental: as §1, §2, §3, §4

| Compound | pIC50 [1] | pIC50 [2] |
| --- | --- | --- |
| CC(=NNc1nc(C(F)(F)F)nc2ccccc12)c1ccc(C)cc1 [Compound 3, N-(1-p-Tolyl-ethylidene)-N′-(2-trifluoromethyl-quinazolin-4-yl)-hydrazine] | 4.82 to 6.00 | 4.82 to 6.00 |
| COc1ccc(C(C)=NNc2nc(C)nc3ccccc23)cc1 [Compound 4, N-[1-(4-methoxy-phenyl)-ethylidene]-N′-(2-methyl-quinazolin-4-yl)-hydrazine] | 4.82 to 6.00 | 4.82 to 6.00 |
| CC(=NNc1nc(C)nc2ccccc12)c1ccc(C)cc1 [Compound 5, N-(2-Methyl-quinazolin-4-yl)-N-(1-p-tolyl-ethylidene)-hydrazine] | 4.82 to 6.00 | 4.82 to 6.00 |
| CC(=NNc1nc(C)nc2ccccc12)c1cccc(C)c1 [Compound 6, N-(2-methyl-quinazolin-4-yl)-N′-(1-m-tolyl-ethylidene)-hydrazine] | 4.82 to 6.00 | 4.82 to 6.00 |
| CC(=NNc1cc(-c2ccccc2OC(C)C)nc(C)n1)c1ccc(N(C)C)cc1 [Compound 12, [4-(1-{[6-(2-Isopropoxy-phenyl)-2-methyl-pyrimidin-4-yl]-hydrazono}-ethyl)-phenyl]-dimethylamine] | 4.82 to 6.00 | > 6.00 |
| CC(=NNc1cc(-c2ccccc2)nc(C)n1)c1ccc(NC(N)=S)cc1 [Compound 19, 4-({1-[(2-Methyl-6-phenyl-pyrimidin-4-yl)-hydrazono]-ethyl}-phenyl)-thiourea] | 4.82 to 6.00 | 4.82 to 6.00 |
| CC(=O)Nc1ccc(C(C)=NNc2cc(-c3ccccc3)nc(C)n2)cc1 [Compound 20, N-(4-{1-[(2-Methyl-6-phenyl-pyrimidin-4-yl)-hydrazono]-ethyl}-phenyl)-acetamide] | 4.82 to 6.00 | 4.82 to 6.00 |
| CCC(=NNc1cc(-c2ccccc2)nc(C)n1)c1ccc(C)cc1 [Compound 22, N-(2-Methyl-6-phenyl-pyrimidin-4-yl)-N′-[1-p-tolyl-propylidene]-hydrazine] | 4.82 to 6.00 | 4.82 to 6.00 |
| CC(=NNc1cc(-c2ccccc2)nc(C)n1)c1ccc(Cl)cc1 [Compound 23, N-[1-(4-Chloro-phenyl)ethylidene]-N′-(2-methyl-6-phenyl-pyrimidin-4-yl)-hydrazine] | 4.82 to 6.00 |  |
| COc1cccc(-c2cc(NN=C(C)c3ccc(C)cc3)nc(C)n2)c1 [Compound 28, N-[6-(3-Methoxy-phenyl)-2-methylpyrimidin-4-yl]-N′-[1-p-tolyl-ethylidene]-hydrazine] |  | 4.82 to 6.00 |
| COc1ccc(-c2cc(NN=C(C)c3ccc(C)cc3)nc(C)n2)cc1 [Compound 30, N-[6-(4-Methoxy-phenyl)-2-methylpyrimidin-4-yl]-N′-[1-p-tolyl-ethylidene]-hydrazine] |  | 4.82 to 6.00 |
| CC(=NNc1cc(-c2ccccc2C#N)nc(C)n1)c1ccc(C)cc1 [Compound 31, 2-(2-Methyl-6-{N′-[1-p-tolyl-ethylidene]-hydrazino}-pyrimidin-4-yl)-benzonitrile] | > 6.00 | > 6.00 |
| CC(=NNc1cc(-c2ccccc2C)nc(C)n1)c1ccc(C)cc1 [Compound 32, N-[6-(2-methyl-phenyl)-2-methyl-pyrimidin-4-yl]-N′-[1-p-tolyl-ethylidene]-hydrazine] | > 6.00 | > 6.00 |
| CC(=NNc1cc(-c2cccnc2)nc(C)n1)c1ccc(C)cc1 [Compound 37, N-(2-Methyl-6-pyridin-3-yl-pyrimidin-4-yl)-N′-[1-p-tolyl-ethylidene]-hydrazine] | 4.82 to 6.00 |  |
| CCc1ccc(C(C)=NNc2cc(-c3ccccc3)nc(C)n2)cc1 [Compound 43, N-[1-(4-Ethyl-phenyl)-ethylidene]-N′-(2-methyl-6-phenyl-pyrimidin-4-yl)-hydrazine] | > 6.00 |  |
| CC(=NNc1cc(-c2ccccc2)nc(C)n1)c1ccc(Br)cc1 [Compound 44, N-[1-(4-Bromo-phenyl)-ethylidene]-N′-(2-methyl-6-phenyl-pyrimidin-4-yl)-hydrazine] | 4.82 to 6.00 |  |
| CC(=NNc1cc(-c2ccccc2)nc(C)n1)c1ccc(I)cc1 [Compound 45, N-[1-(4-Iodo-phenyl)-ethylidene]-N′-(2-methyl-6-phenyl-pyrimidin-4-yl)-hydrazine] | 4.82 to 6.00 |  |
| CC(=NNc1cc(-c2ccccc2)nc(C)n1)c1cccc(N)c1 [Compound 46, 3-{1-[(2-Methyl-6-phenyl-pyrimidin-4-yl)-hydrazono]-ethyl}-phenylamine] | 4.82 to 6.00 |  |
| CC(=NNc1cc(-c2ccccc2)nc(C)n1)c1ccc(Cl)c(Cl)c1 [Compound 47, N-[1-(3,4-Dichloro-phenyl)-ethylidene]-N′-(2-methyl-6-phenyl-pyrimidin-4-yl)-hydrazine] | 4.82 to 6.00 |  |
| CC(=NNc1cc(-c2ccccc2)nc(C)n1)c1ccc(O)cc1 [Compound 48, 4-{1-[(2-Methyl-6-phenyl-pyrimidin-4-yl)-hydrazono]-ethyl}-phenol] | 4.82 to 6.00 |  |

Other lines, results leading:

| pIC50 [1] | pIC50 [2] | Compound |
| --- | --- | --- |
| > 6.00 | > 6.00 | CC(=NN(C)c1nc(C(F)(F)F)nc2ccccc12)c1cccc(C)c1 [Compound 1] |
| > 6.00 | > 6.00 | CC(=NNc1cc(-c2ccccc2)nc(C)n1)c1ccc(N(C)C)cc1 [Compound 8, Dimethyl-(4-{1-[(2-methyl-6-phenyl-pyrimidin-4-yl)-hydrazono]ethyl}-phenyl)amine] |
| > 6.00 | > 6.00 | COc1ccccc1-c1cc(NN=C(C)c2ccc(N(C)C)cc2)nc(C)n1 [Compound 9] |
| > 6.00 | > 6.00 | CC(=NNc1cc(-c2c(C)noc2C)nc(C)n1)c1ccc(N(C)C)cc1 [Compound 10, (4-(1-{[6-(3,5-dimethyl-isoxazol-4-yl)-2-methyl-pyrimidin-4-yl]-hydrazono}-ethyl)-phenyl]-dimethylamine] |
| > 6.00 | > 6.00 | CC(=NNc1cc(-c2ccccc2OC(F)(F)F)nc(C)n1)c1ccc(N(C)C)cc1 [Compound 11, Dimethyl-[4-(1-{[2-methyl-6-(2-trifluoromethoxy-phenyl)-pyrimidin-4-yl]-hydrazono}-ethyl)-phenyl]-amine] |
| > 6.00 | > 6.00 | CC(=NNc1cc(-c2ccccc2F)nc(C)n1)c1ccc(N(C)C)cc1 [Compound 13, [4-(1-{[6-(2-Fluoro-phenyl)-2-methyl-pyrimidin-4-yl]-hydrazono}-ethyl)-phenyl]-dimethylamine] |
| > 6.00 | > 6.00 | CC(=NNc1cc(-c2ccccc2N)nc(C)n1)c1ccc(N(C)C)cc1 [Compound 14, [4-(1-{[6-(2-amino-phenyl)-2-methyl-pyrimidin-4-yl]-hydrazono}-ethyl)-phenyl]-dimethylamine] |
| > 6.00 | > 6.00 | COc1nc(NN=C(C)c2ccc(N(C)C)cc2)cc(-c2ccccc2)n1 [Compound 15, (4-{1-[(2-Methoxy-6-phenyl-pyrimidin-4-yl)-hydrazono]-ethyl}-phenyl)-dimethylamine] |
| > 6.00 | > 6.00 | CCc1nc(NN=C(C)c2ccc(N(C)C)cc2)cc(-c2ccccc2OC)n1 [Compound 16, [4-(1{[2-Ethyl-6-(2-methoxy-phenyl)-pyrimidin-4-yl]-hydrazono}-ethyl)-phenyl]-dimethylamine] |
| > 6.00 | > 6.00 | COc1ccccc1-c1cc(NN=C(C)c2ccc(N(C)C)cc2)ncn1 [Compound 17, [4-(1-{[6-(2-Methoxy-phenyl)-pyrimidin-4-yl]-hydrazono}-ethyl)-phenyl]dimethyl amine] |
| > 6.00 | > 6.00 | CNc1ccc(C(C)=NNc2cc(-c3ccccc3)nc(C)n2)cc1 [Compound 18, Methyl-(4-{1-[(2-methyl-6-phenyl-pyrimidin-4-yl)-hydrazono]-ethyl}-phenyl)-amine] |
| > 6.00 | > 6.00 | CNc1ccc(C(C)=NNc2nc(C)nc(-c3ccccc3)c2N)cc1 [Compound 21, 2-Methyl-4-{N′-[1-(4-methylamino-phenyl)-ethylidene]-hydrazino}-6-phenyl-pyrimidin-5-ylamine] |
| > 6.00 |  | COc1ccc(C(C)=NNc2cc(-c3ccccc3)nc(C)n2)cc1 [Compound 24, N-[1-(4-Methoxy-phenyl)-ethylidene]-N′-(2-methyl-6-phenyl-pyrimidin-4-yl)-hydrazine] |
| > 6.00 | > 6.00 | COc1ccccc1-c1cc(NN=C(C)c2ccc(C)cc2)ncn1 [Compound 25, N-[6-(2-Methoxy-phenyl)-pyrimidin-4-yl]-N′-[1-p-tolyl-ethylidene]-hydrazine] |
| > 6.00 | > 6.00 | CCc1nc(NN=C(C)c2ccc(C)cc2)cc(-c2ccccc2OC)n1 [Compound 26, N-[2-Ethyl-6-(2-methoxy-phenyl)-pyrimidin-4-yl]-N′-[1-p-tolyl-ethylidene]-hydrazine] |
| > 6.00 | > 6.00 | CC(=NNc1cc(-c2ccccc2F)nc(C)n1)c1ccc(C)cc1 [Compound 27, N-[6-(2-Fluoro-phenyl)-2-methyl-pyrimidin-4-yl]-N′-[1-p-tolyl-ethylidene]-hydrazine] |
| > 6.00 | > 6.00 | COc1ccccc1-c1cc(NN=C(C)c2ccc(C)cc2)nc(C)n1 [Compound 29, N-[6-(2-Methoxy-phenyl)-2-methylpyrimidin-4-yl]-N′-[1-p-tolyl-ethylidene]-hydrazine] |
